Reference: patent US20070232601A1, “Vla-4 Inhibitor” (priority 2004, published 2007)
pKi: −log10 of the molar value.

Assays:
[1] = target: T1, hα4 and β1 integrins (VLA-4) (Homo sapiens, UniProt P05556+P13612); experiment: In vitro evaluation: inhibition of binding of CHO cells expressing hα4 and β1 integrins to Eu3+-hVCAM-1 D1D7-IgG; conditions: ligand Eu3+-hVCAM-1 D1D7-IgG 2 nM, Ki calculated from IC50
T1 construct: expressed in transfected cells; host or cells: CHO cells
How it was run: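 CHO cells stably expressing hα4β1 were cultured 2 days, then incubated 1 h at room temperature with Eu3+-hVCAM-1 D1D7-IgG (added as 2 nM solution) and compound in HEPES pH 7.5 with Ca2+, Mg2+ and 4 mM Mn2+, ± 6% human serum albumin. Bound europium was read by time-resolved fluorescence; IC50 was converted to Ki using Scatchard-derived Kd.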

[2] = Dispersibility test in Japanese Pharmacopoeia First and Second Solution; assay type: physicochemical; conditions: for Dispersibility in Japanese Pharmacopoeia First Solution: JP1, pH 1.2; for Dispersibility in Japanese Pharmacopoeia Second Solution: JP2, pH 6.8
Method: Dispersibility of a test substance in Japanese Pharmacopoeia First Solution (JP1, pH 1.2) and Japanese Pharmacopoeia Second Solution (JP2, pH 6.8) was evaluated.

T1 sequence (P13612 34-1032): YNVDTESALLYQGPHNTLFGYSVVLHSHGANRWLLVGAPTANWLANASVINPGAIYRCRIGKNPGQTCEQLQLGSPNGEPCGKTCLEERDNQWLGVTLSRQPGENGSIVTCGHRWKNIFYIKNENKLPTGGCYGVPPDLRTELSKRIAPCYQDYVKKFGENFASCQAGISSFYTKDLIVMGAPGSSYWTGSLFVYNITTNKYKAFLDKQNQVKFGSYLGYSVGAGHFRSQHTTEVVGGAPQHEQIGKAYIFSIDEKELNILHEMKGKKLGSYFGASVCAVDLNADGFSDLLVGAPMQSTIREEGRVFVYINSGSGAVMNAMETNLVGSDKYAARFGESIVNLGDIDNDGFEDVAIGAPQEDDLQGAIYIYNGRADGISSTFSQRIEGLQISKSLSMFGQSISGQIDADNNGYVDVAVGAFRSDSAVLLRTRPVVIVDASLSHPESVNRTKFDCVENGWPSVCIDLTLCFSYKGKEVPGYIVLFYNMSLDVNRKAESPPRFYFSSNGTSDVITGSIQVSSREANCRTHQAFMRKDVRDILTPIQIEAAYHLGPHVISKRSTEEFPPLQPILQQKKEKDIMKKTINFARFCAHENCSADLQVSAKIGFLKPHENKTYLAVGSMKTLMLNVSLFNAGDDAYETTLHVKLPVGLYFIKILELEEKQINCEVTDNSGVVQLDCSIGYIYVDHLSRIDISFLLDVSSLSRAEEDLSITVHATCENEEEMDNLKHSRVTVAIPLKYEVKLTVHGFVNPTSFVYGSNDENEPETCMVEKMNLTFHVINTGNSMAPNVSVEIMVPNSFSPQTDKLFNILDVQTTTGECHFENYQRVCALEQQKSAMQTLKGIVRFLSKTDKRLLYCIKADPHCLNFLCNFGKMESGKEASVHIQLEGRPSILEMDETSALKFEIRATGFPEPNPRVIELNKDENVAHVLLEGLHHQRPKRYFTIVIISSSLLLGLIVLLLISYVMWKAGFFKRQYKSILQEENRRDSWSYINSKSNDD
T1 sequence (P05556 21-798): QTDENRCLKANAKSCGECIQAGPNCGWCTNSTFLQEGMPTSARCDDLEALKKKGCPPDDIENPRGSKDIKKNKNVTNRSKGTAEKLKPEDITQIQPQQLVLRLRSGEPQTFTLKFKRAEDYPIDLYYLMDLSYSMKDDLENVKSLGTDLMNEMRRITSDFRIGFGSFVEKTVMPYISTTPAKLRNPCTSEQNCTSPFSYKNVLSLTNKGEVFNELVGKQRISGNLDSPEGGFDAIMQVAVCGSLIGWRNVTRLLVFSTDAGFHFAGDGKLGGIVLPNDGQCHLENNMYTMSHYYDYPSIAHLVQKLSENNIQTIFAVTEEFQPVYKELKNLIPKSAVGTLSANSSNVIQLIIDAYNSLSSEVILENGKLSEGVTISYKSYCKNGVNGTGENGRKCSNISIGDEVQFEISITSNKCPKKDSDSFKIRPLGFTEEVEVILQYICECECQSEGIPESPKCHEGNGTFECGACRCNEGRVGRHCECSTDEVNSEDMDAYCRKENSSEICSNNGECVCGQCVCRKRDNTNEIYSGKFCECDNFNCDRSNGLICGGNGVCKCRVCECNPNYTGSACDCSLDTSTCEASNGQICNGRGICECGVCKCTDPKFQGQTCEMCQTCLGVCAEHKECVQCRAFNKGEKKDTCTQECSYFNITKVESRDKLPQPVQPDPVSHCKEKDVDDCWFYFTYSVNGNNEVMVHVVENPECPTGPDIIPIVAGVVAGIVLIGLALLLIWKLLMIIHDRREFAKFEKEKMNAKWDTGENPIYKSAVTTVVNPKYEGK

SMILES	pKi [1]	Dispersibility in Japanese Pharmacopoeia First Solution [2]	Dispersibility in Japanese Pharmacopoeia Second Solution [2]
COC1CN([C@H]2C[C@@H](c3ncc(CCC(=O)O)s3)N(C(=O)Cc3cc(Cl)c(NC(=O)c4coc5ccccc45)cc3Cl)C2)C1 [Example 68, 3-[2-[[1-4-(3-Benzo[b]furanylcarbonylamino)-2,5-dichlorophenylacetyl]-(4S)-[1-(3-methoxy)azetidinyl]-(2S)-pyrrolidinyl]-5-thiazolyl]propionic acid]	9.14	1000 µg/mL	1000 µg/mL
C[C@@H]1CN([C@H]2C[C@@H](c3ncc(CCC(=O)O)s3)N(C(=O)Cc3cc(Cl)c(NC(=O)c4cn(C)c5ccccc45)cc3Cl)C2)C[C@H](C)O1 [Example 86, 3-[2-[1-[2,5-Dichloro-4-(1-methyl-3-indolylcarbonylamino)phenylacetyl]-(4S)-[4-(cis-2,6-dimethyl)morpholinyl]-(2S)-pyrrolidinyl]-5-thiazolyl]propionic acid]	9.00	1200 µg/mL	1400 µg/mL
CO[C@H]1C[C@@H](c2ncc(CCC(=O)O)s2)N(C(=O)Cc2ccc(Nc3nc4ccccc4o3)c(Cl)c2)C1 [Example 107, 3-[2-[1-[4-(2-Benzoxazolyl)amino-3-chlorophenyl]acetyl-(4S)-methoxy-(2S)-pyrrolidinyl]-5-thiazolyl]propionic acid]	8.04	700 µg/mL	700 µg/mL
O=C(O)CCc1cnc([C@@H]2[C@@H](O)CCN2C(=O)Cc2cc(Cl)c(Nc3nc4ccccc4s3)cc2Cl)s1 [Example 121, 3-[2-[1-[4-(2-Benzothiazolyl)amino-2,5-dichlorophenyl]acetyl-(3S)-hydroxy-(2S)-pyrrolidinyl]-5-thiazolyl]propionic acid]	8.07	160 µg/mL	780 µg/mL
Cn1cc(C(=O)Nc2cc(F)c(CC(=O)N3C[C@@H](N4CCN(CC(F)(F)F)CC4)C[C@H]3c3ncc(CCC(=O)O)s3)cc2Cl)c2ccccc21 [Example 79, 3-[2-[1-[5-Chloro-2-fluoro-4-(1-methyl-3-indolylcarbonylamino)phenylacetyl]-(4S)-[1-(4-(2,2,2-trifluoro)ethyl)piperazinyl]-(2S)-pyrrolidinyl]-5-thiazolyl]propionic acid]	8.82	250 µg/mL	670 µg/mL
CO[C@H]1C[C@@H](c2ncc(CCC(=O)O)s2)N(C(=O)Cc2cc(Cl)c(Nc3nc4ccccc4s3)cc2Cl)C1 [Example 112, 3-[2-[1-[4-(2-Benzothiazolyl)amino-2,5-dichlorophenyl]acetyl-(4S)-methoxy-(2S)-pyrrolidinyl]-5-thiazolyl]propionic acid]	8.72	420 µg/mL	770 µg/mL
O=C(O)CCc1cnc([C@@H]2C[C@H](N3CCC(F)(F)CC3)CN2C(=O)Cc2cc(Cl)c(NC(=O)c3csc4ccccc34)cc2F)s1 [Example 75, 3-[2-[1-[4-(3-Benzo[b]thiophenylcarbonylamino)-5-chloro-2-fluorophenylacetyl]-(4S)-[1-(4,4-difluoro)piperidinyl]-(2S)-pyrrolidinyl]-5-thiazolyl]propionic acid]	9.33	220 µg/mL	160 µg/mL
COC1CN([C@H]2C[C@@H](c3ncc(CCC(=O)O)s3)N(C(=O)Cc3cc(Cl)c(NC(=O)c4coc5ccccc45)cc3F)C2)C1 [Example 67, 3-[2-[1-[4-(3-Benzo[b]furanylcarbonylamino)-5-chloro-2-fluorophenylacetyl]-(4S)-[1-(3-methoxy)azetidinyl]-(2S)-pyrrolidinyl]-5-thiazolyl]propionic acid]	8.92	1000 µg/mL	1000 µg/mL
C[C@@H]1CN([C@H]2C[C@@H](c3ncc(CCC(=O)O)s3)N(C(=O)Cc3cc(Cl)c(NC(=O)c4coc5ccccc45)cc3Cl)C2)C[C@H](C)O1 [Example 90]	8.89	1100 µg/mL	1300 µg/mL
CO[C@H]1C[C@@H](c2ncc(CCC(=O)O)s2)N(C(=O)Cc2cc(Cl)c(Nc3nc4ccccc4s3)cc2F)C1 [Example 111, 3-[2-[1-[4-(2-Benzothiazolyl)amino-5-chloro-2-fluorophenyl]acetyl-(4S)-methoxy-(2S)-pyrrolidinyl]-5-thiazolyl]propionic acid]	8.48	570 µg/mL	750 µg/mL
O=C(O)CCc1cnc([C@@H]2[C@@H](O)CCN2C(=O)Cc2cc(Cl)c(Nc3nc4ccccc4s3)cc2F)s1 [Example 120, 3-[2-[1-[4-(2-Benzothiazolyl)amino-5-chloro-2-fluorophenyl]acetyl-(3S)-hydroxy-(2S)-pyrrolidinyl]-5-thiazolyl]propionic acid]	8.01	320 µg/mL	760 µg/mL
O=C(O)CCc1cnc([C@@H]2[C@@H](O)CCN2C(=O)Cc2ccc(Nc3nc4ccccc4s3)c(Cl)c2)s1 [Example 119, 3-[2-[1-[4-(2-Benzothiazolyl)amino-3-chlorophenyl]acetyl-(3S)-hydroxy-(2S)-pyrrolidinyl]-5-thiazolyl]propionic acid]	8.21	730 µg/mL	730 µg/mL
Cn1cc(C(=O)Nc2cc(Cl)c(CC(=O)N3CCC[C@H]3c3ncc(CCC(=O)O)s3)cc2Cl)c2ccccc21 [Example 26, 3-[2-[1-[2,5-Dichloro-4-(1-methyl-3-indolylcarbonylamino)phenylacetyl]-(2S)-pyrrolidinyl]-5-thiazolyl]propionic acid]	8.60	4 µg/mL	660 µg/mL
Cn1cc(C(=O)Nc2cc(Cl)c(CC(=O)N3C[C@@H](N4CCN(CC(F)(F)F)CC4)C[C@H]3c3ncc(CCC(=O)O)s3)cc2Cl)c2ccccc21 [Example 80, 3-[2-[1-[2,5-Dichloro-4-(1-methyl-3-indolylcarbonylamino)phenylacetyl]-(4S)-[1-(4-(2,2,2-trifluoro)ethyl)piperazinyl]-(2S)-pyrrolidinyl]-5-thiazolyl]propionic acid]	8.70	110 µg/mL	730 µg/mL
Cn1cc(C(=O)Nc2cc(Cl)c(CC(=O)N3C[C@@H](N4CCC(F)(F)CC4)C[C@H]3c3ncc(CCC(=O)O)s3)cc2Cl)c2ccccc21 [Example 74, 3-[2-[1-[2,5-Dichloro-4-(1-methyl-3-indolylcarbonylamino)phenylacetyl]-(4S)-[1-(4,4-difluoro)piperidinyl]-(2S)-pyrrolidinyl]-5-thiazolyl]propionic acid]	8.92	130 µg/mL	150 µg/mL
COC1CN([C@H]2C[C@@H](c3ncc(CCC(=O)O)s3)N(C(=O)Cc3cc(Cl)c(NC(=O)c4csc5ccccc45)cc3F)C2)C1 [Example 65, 3-[2-[1-[4-(3-Benzo[b]thiophenylcarbonylamino)-5-chloro-2-fluorophenylacetyl]-(4S)-[1-(3-methoxy)azetidinyl]-(2S)-pyrrolidinyl]-5-thiazolyl]propionic acid]	9.03	1000 µg/mL	1000 µg/mL
O=C(O)CCc1cnc([C@@H]2C[C@H](N3CCN(CC(F)(F)F)CC3)CN2C(=O)Cc2cc(Cl)c(NC(=O)c3csc4ccccc34)cc2Cl)s1 [Example 82]	8.89	96 µg/mL	320 µg/mL
CO[C@H]1C[C@@H](c2ncc(CCC(=O)O)s2)N(C(=O)Cc2ccc3nc(-c4cn(C)c5ccccc45)oc3c2F)C1 [Example 11, 3-[2-[1-[7-Fluoro-2-(1-methylindol-3-yl)-1,3-benzoxazol-6-ylacetyl]-(4S)-methoxy-(2S)-pyrrolidinyl]-5-thiazolyl]propionic acid]	9.30	–	–
CCO[C@H]1CCN(C(=O)Cc2cc(Cl)c(NC(=O)c3cn(C)c4ccccc34)cc2F)[C@@H]1c1ncc(CCC(=O)O)o1 [Example 97, 3-[2-[1-[[5-Chloro-2-fluoro-4-(1-methyl-3-indolylcarbonylamino)phenyl]acetyl]-(3S)-ethoxy-(2S)-pyrrolidinyl]-5-oxazolyl]propionic acid]	8.04	–	–
O=C(O)CCc1cnc([C@@H]2C[C@H](F)CN2C(=O)Cc2cc(Cl)c(NC(=O)c3csc4ccccc34)cc2F)s1 [Example 21, 3-[2-[1-[[4-[(3-Benzo[b]thienylcarbonyl)amino]-5-chloro-2-fluorophenyl]acetyl]-(4S)-fluoro-(2S)-pyrrolidinyl]-5-thiazolyl]propionic acid]	9.21	–	–
CO[C@@H]1C[C@@H](c2ncc(CCC(=O)O)s2)N(C(=O)Cc2cc(Cl)c(NC(=O)c3cn(C)c4ccccc34)cc2Cl)C1 [Example 24, 3-[2-[1-[2,5-Dichloro-4-(1-methyl-3-indolylcarbonylamino)phenylacetyl]-(4R)-methoxy-(2S)-pyrrolidinyl]-5-thiazolyl]propionic acid]	8.19	–	–
